Assay results from the NIST ThermoML archive (doi:10.1021/je030177j).
± gives the expanded uncertainty stated by the source.

Settings: Liquid, Capillary tube (Ostwald / Ubbelohde) method

O [water]
viscosity [mPa·s]
Settings	297.88 K	319.09 K	340.98 K	370.39 K	408.77 K	447.38 K	483.66 K	538.57 K	574.32 K
10000 kPa	0.893 ± 0.014	0.5912 ± 0.0096	0.4195 ± 0.0069	0.2947 ± 0.0049	0.206 ± 0.0035	0.1576 ± 0.0028	0.129 ± 0.0024	0.1005 ± 0.0019	0.0866 ± 0.0017
20000 kPa	0.8933 ± 0.014	0.589 ± 0.0096	0.4232 ± 0.0069	0.2976 ± 0.005	0.2107 ± 0.0036	0.161 ± 0.0028	0.1314 ± 0.0024	0.1027 ± 0.002	0.0903 ± 0.0018
30000 kPa	0.8935 ± 0.014	0.5978 ± 0.0097	0.4275 ± 0.007	0.3012 ± 0.005	0.2132 ± 0.0037	0.1637 ± 0.0029	0.134 ± 0.0024	0.1058 ± 0.002	0.0932 ± 0.0018
